Calls of active or inactive are those of the source.
What was measured:
[1] = target: T1, High affinity choline transporter 1 (Homo sapiens, UniProt Q9GZV3); assay: CHT inhibitors, dose response, cell-based, 5-point CRC, membrane potential dye (AID 504840); format: functional
T1 sequence (Q9GZV3 whole entry): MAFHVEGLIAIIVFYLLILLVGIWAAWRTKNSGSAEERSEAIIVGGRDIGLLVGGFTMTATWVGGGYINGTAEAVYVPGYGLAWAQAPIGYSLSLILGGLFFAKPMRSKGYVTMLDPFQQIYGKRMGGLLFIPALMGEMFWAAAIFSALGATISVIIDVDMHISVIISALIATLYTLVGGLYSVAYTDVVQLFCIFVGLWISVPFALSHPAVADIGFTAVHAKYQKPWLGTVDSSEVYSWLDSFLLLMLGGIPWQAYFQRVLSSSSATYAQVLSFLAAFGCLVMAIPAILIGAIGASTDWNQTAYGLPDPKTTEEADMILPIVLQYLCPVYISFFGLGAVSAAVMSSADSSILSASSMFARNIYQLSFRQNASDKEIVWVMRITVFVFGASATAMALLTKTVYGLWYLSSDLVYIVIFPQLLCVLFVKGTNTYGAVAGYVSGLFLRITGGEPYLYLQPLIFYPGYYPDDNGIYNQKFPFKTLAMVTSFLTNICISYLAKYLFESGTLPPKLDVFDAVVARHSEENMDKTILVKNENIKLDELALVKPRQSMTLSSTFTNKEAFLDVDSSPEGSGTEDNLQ

[2] = target: T2, RNA-binding protein pos-1 (Caenorhabditis elegans, UniProt G5EF15); assay: inhibitors of POS-1/mex-3 RNA binding, dose response, biochemical, fluorescence polarization (AID 1964);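 note: purified POS-1 fused to maltose binding protein made in E. coli; potency of compounds blocking POS-1 binding to fluorescent RNA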
T2 sequence (G5EF15 whole entry): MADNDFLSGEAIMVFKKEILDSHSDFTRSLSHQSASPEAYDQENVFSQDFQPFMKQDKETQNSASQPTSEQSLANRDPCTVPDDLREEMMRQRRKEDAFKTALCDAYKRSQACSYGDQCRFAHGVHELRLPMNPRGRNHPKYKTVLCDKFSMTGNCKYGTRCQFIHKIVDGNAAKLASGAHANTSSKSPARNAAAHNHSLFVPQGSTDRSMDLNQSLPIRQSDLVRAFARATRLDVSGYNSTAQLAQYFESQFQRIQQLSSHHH

[3] = target: Genome polyprotein (dengue virus type 2, UniProt P29990); assay: Dengue-2 NS5 methyltransferase inhibitors, primary screen, biochemical, confirmation dose response (AID 588689); format: functional
[4] = target: T3, Rac GTPase-activating protein 1 (Homo sapiens, UniProt Q9H0H5); assay: MgcRacGAP GTPase-activating activity inhibitors, confirmation, biochemical, ADP Hunter fluorescence, primary and confirmatory (AID 624330); format: functional
T3 sequence (Q9H0H5 whole entry): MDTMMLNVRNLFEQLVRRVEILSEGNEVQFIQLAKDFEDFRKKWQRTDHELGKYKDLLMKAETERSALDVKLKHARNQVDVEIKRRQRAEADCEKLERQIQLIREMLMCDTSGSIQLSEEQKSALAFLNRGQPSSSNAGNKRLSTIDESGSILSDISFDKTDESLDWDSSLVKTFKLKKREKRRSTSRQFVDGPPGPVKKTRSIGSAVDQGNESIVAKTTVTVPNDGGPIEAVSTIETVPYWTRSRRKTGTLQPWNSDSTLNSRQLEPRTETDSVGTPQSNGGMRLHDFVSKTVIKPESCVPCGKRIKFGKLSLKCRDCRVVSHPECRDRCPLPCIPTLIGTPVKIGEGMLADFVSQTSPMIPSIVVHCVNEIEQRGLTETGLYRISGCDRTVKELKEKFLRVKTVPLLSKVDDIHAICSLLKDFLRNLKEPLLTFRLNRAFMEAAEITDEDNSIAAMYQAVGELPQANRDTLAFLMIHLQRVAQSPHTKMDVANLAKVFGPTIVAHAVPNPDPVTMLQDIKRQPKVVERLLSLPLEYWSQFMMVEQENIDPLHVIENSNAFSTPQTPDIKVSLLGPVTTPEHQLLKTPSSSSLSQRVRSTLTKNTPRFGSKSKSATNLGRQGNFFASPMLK

[5] = target: T4, Zinc finger protein mex-5 (Caenorhabditis elegans, UniProt Q9XUB2); assay: MEX-5/TCR-2 RNA interaction inhibitors, dose response, biochemical, C. elegans, fluorescence polarization (AID 1960)
T4 sequence (Q9XUB2 whole entry): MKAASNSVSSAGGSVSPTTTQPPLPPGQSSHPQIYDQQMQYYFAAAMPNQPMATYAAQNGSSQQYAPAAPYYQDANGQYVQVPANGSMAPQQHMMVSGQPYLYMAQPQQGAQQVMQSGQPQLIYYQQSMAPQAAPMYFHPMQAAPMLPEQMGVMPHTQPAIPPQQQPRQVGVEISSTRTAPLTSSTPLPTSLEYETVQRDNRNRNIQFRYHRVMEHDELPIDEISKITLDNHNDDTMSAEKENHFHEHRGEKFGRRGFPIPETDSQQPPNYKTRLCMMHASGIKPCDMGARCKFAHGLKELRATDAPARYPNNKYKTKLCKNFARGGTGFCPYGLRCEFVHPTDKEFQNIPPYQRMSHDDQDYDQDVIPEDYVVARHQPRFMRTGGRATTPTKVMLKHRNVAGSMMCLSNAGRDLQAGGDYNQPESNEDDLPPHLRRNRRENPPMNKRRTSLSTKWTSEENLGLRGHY

[6] = cytotoxicity in MIN6 insulinoma cells, dose response, cytotoxicity control, cell-based, mouse insulinoma (AID 2122); format: functional;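 note: confirmatory high-throughput counterscreen run to flag cytotoxic compounds; mouse MIN-6 beta cells carrying an insulin promoter eGFP reporter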
[7] = insulin promoter down-regulators in MIN6 cells, imaging, high-content screening, mouse beta cells (AID 1628); format: functional
[8] = target: T5, Microphthalmia-associated transcription factor (Homo sapiens, UniProt O75030); assay: TRPM1 promoter luciferase signal decrease, dose response, MITF inhibitor project, cell-based, SK-MEL-5, cherry-picked, set 3 (AID 493073); format: functional
T5 sequence (O75030 whole entry): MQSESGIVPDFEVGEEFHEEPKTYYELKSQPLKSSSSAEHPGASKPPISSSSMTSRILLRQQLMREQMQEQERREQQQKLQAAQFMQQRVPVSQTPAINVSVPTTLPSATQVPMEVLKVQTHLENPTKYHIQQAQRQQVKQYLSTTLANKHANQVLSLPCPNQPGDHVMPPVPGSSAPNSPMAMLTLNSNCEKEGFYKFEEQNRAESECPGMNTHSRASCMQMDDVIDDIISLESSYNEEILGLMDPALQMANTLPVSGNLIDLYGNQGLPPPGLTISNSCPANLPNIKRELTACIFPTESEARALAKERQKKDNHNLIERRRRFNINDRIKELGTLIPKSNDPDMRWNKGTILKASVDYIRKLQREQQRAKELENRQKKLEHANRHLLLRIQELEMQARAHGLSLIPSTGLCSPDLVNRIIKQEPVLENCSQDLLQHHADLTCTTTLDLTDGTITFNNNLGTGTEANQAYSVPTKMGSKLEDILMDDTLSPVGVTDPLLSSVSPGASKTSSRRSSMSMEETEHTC

[9] = Luminescence Cell-Based Dose Retest to Confirm Inhibitors of Cancer Stem Cells. [Related pubchem assays (depositor defined):AID2717, AID2721]; format: functional; settings: Homo sapiens
[10] = target: T6, Polyadenylate-binding protein 1 (Homo sapiens, UniProt P11940); assay: PABP1 MLLE–PAM2 interaction inhibitors, dose response, miRNA deadenylation inhibitor project, biochemical, fluorescence polarization, Cy5-PAM2 peptide, secondary (AID 602260); format: functional; settings: read-out: IC50_Mean
[11] = target: T6, Polyadenylate-binding protein 1; assay: PABP1 MLLE–PAM2 binding inhibitor potency, dose response, biochemical, fluorescence polarization, FITC-PAM2 peptide (AID 602259); format: functional; settings: read-out: IC50_Mean
[12] = target: T7, Aminopeptidase N (Plasmodium falciparum FcB1/Columbia, UniProt O96935); assay: P. falciparum M1AAP inhibitors, biochemical, fluorogenic H-Leu-NHMec substrate, 1536-well (AID 1445); set-up: species or system Plasmodium falciparum 3D7, 3D7
T7 sequence (O96935 whole entry): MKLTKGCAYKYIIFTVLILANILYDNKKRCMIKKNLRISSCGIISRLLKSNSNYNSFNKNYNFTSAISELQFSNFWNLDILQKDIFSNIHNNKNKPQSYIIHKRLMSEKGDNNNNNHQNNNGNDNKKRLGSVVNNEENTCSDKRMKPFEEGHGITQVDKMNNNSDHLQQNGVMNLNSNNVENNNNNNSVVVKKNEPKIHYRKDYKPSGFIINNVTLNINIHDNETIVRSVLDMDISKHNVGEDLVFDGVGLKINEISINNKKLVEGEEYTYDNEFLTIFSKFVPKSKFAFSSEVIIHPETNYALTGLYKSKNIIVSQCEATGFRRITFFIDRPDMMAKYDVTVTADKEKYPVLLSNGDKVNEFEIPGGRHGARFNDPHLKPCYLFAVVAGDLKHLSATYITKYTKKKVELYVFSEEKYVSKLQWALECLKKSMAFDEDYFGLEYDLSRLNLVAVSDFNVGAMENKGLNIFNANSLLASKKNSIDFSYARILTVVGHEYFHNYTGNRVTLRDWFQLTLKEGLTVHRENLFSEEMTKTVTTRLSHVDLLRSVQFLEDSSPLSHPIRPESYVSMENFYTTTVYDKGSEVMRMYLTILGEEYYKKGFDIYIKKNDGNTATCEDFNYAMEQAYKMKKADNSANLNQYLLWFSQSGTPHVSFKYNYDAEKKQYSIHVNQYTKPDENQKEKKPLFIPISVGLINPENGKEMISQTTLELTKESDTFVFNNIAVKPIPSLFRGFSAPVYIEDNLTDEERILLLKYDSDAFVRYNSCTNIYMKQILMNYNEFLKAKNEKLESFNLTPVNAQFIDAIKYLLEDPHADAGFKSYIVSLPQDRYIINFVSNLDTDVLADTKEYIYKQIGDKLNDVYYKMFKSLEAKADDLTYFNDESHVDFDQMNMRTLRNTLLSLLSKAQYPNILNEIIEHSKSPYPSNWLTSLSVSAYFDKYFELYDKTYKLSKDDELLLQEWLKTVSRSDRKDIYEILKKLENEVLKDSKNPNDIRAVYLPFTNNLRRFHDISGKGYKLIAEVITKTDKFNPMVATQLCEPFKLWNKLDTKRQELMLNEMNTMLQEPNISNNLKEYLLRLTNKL

T6 sequence (P11940 whole entry): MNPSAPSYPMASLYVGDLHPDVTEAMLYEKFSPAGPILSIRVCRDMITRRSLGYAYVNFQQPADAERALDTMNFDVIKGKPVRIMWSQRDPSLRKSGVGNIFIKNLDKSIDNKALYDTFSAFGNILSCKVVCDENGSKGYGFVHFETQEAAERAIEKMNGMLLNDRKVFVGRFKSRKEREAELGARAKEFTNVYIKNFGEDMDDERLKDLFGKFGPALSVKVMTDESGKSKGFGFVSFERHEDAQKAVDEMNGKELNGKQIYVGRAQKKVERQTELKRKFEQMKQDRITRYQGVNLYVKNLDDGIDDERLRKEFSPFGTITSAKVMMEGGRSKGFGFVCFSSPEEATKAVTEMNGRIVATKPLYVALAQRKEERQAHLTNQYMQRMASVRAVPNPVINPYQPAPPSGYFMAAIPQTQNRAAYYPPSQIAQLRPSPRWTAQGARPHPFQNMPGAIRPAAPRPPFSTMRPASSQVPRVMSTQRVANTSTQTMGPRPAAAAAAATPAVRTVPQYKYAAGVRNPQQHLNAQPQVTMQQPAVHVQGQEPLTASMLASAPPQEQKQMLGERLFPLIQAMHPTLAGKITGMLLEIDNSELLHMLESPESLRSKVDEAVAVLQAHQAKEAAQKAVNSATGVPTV
Genome polyprotein, sequence (P29990 2492-3391 limits assumed): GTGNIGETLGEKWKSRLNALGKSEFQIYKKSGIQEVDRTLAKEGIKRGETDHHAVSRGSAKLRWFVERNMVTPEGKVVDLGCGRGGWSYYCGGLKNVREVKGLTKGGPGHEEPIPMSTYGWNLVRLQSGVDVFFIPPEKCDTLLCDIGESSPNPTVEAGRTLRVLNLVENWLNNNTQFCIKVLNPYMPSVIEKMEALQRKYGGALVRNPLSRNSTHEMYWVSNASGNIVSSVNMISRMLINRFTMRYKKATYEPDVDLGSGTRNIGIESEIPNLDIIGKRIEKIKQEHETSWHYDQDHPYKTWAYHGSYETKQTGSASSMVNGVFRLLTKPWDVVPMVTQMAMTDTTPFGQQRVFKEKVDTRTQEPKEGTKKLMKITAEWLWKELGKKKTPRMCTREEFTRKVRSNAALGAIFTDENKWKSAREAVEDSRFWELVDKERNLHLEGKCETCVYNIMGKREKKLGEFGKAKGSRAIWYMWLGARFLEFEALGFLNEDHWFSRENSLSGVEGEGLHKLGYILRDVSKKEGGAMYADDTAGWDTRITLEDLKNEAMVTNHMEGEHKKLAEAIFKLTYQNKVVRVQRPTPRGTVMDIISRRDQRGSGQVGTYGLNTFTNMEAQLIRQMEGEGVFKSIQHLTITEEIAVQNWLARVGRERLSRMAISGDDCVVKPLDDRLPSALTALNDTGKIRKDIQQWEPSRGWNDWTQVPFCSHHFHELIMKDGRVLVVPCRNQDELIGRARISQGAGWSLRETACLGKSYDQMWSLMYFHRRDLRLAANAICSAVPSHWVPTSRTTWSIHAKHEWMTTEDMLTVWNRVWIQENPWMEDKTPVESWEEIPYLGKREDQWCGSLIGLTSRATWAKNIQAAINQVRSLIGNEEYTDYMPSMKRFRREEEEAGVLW

With CCc1ccc(OC(C)C(=O)Nc2ccc(S(=O)(=O)Nc3nccs3)cc2)cc1 (stereo not given) the IC50 [1] was 13.8 µM (active).

For CSc1nc(S)c2[nH]c(S)nc2n1, the EC50 [2] was 5.15 µM (active), the IC50 [3] was 30.6 µM (active) and the IC50 [4] was 32.7 µM (active). For the same molecule, the EC50 [5] was 4.78 µM (active).

With CC1(C)CC(N2CCCC2)=CC(=[N+]2CCCCC2)C1 the IC50 [6] was < 0.25 µM (active) and the IC50 [7] was < 0.25 µM (active).

With CCOC(=O)C1=C(C)N=c2s/c(=C/c3cccc([N+](=O)[O-])c3O)c(=O)n2C1c1cc(OC)c(OC)c(OC)c1 (stereo not given) the IC50 [1] was 13.2 µM (active).

For Cc1ccc(N2C(=O)NC(=O)/C(=C/C=C/c3ccco3)C2=O)cc1, the AC50 [8] was 5.97 µM (active) and the AC50 [9] was 1.65 µM (active).

In the case of O=C(CCl)Nc1cccc(S(=O)(=O)NC2=NCCCCC2)c1, the AC50 [8] was 7.85 µM (active).

With COc1cc(/C=C2/SC(NS(=O)(=O)c3ccccc3)=NC2=O)c([N+](=O)[O-])cc1OC the IC50 [10] was > 66 µM (inactive), the IC50 [11] was > 66 µM (inactive) and the IC50 [3] was 45.8 µM (active). The IC50 [12] was 24.1 µM (active).

— ChEMBL document CHEMBL1201862, “PubChem BioAssay data set” (2004)
